In patent US9320759B2, “Methods and compositions for treating, reducing or preventing deterioration of the visual system of animals” (Nestec S.A, priority 2011, dated 2016):

What was measured:
[1] = tested on: TUNEL-positive cells in the ischemic boundary cortex; assay: TUNEL staining and cell death quantification after transient middle cerebral artery occlusion; assay type: in vivo, rat; details: OVX female rats, 4 weeks diet (E2 1 week), 1 hour MCA occlusion, 24 hours reperfusion
Experimental: Young adult (2 to 3 months old) female Charles River rats were ovariectomized (OVX) and fed one of 5 compositions for 4 weeks or treated with estradiol (E2) as a positive control for one week. The animal groups and respective compositions were: At the end of the 4 weeks of feeding (or 1 week of E2 treatment), the animals were subjected to a transient (1 hour) middle cerebral artery occlusion followed by reperfusion for 24 hours to mimic one of the main causes of neuron loss. Then, the animals were euthanized for determination of brain lesion volume and subsequent terminal deoxynucleotidyl transferase dUTP nick end labeling (TUNEL) staining to evaluate apoptosis in and around brain lesions. TUNEL staining was conducted on the same tissue used for assessment of lesion volume in Example 2. Brain slices were post-fixed in 4% formalin for later sectioning for subsequent staining for TUNEL positive neurons. DNA fragmentation was detected by a TUNEL method using a Dead END fluorescent kit (Promega, Madison, Wis.) according to the manufacturer's instruction. […] Within these boundaries, optical dissectors were systematically randomly sampled and the number of positive cells, together with DAPI labeled nuclear counter-stain in each optical section is counted. […] The data were expressed as the percentage of DAPI nuclear counter-stained cells.

[2] = tested on: brain lesion (infarcted area) after middle cerebral artery occlusion; assay: TTC staining, brain lesion volume after transient middle cerebral artery occlusion; assay type: in vivo, rat; details: OVX female rats, 4 weeks diet (E2 1 week), 1 hour MCA occlusion, 24 hours reperfusion
Experimental: Young adult (2 to 3 months old) female Charles River rats were ovariectomized (OVX) and fed one of 5 compositions for 4 weeks or treated with estradiol (E2) as a positive control for one week. The animal groups and respective compositions were: At the end of the 4 weeks of feeding (or 1 week of E2 treatment), the animals were subjected to a transient (1 hour) middle cerebral artery occlusion followed by reperfusion for 24 hours to mimic one of the main causes of neuron loss. […] Photographs were taken with a digital camera. The digital images of each brain section were used to calculate lesion volume for the infracted area of the brain.

Structure (SMILES): C[C@]12CC[C@@H]3c4ccc(O)cc4CC[C@H]3[C@@H]1CC[C@@H]2O [17β-Estradiol]
- TUNEL Staining Value (TUNEL-positive cells normalized to the total number of cells by DAPI stain) [1]: 37.69 percentage of DAPI nuclear counter-stained cells
- Lesion Volume Value [2]: 147.41
